Test results as given in PMC4300400, “Comparative biochemical analysis of three members of the Schistosoma mansoni TAL family: Differences in ion and drug binding properties” (Biochimie, 2015).
Where a name gives a salt, the structure may show the parent alone.

B1: SmTAL1 (Schistosoma mansoni tegumental allergen-like protein 1) (natural protein, UniProt P14202 1-190, looked up)
chain: MATETKLSQMEEFIRAFLEIDADSNEMIDKQELIKYCQKYRLDMKLIDPWIARFDTDKDNKISIEEFCRGFGLKVSEIRREKDELKKERDGKFPKLPPNIEIIAATMSKTKQYEICCQFKEYVDNTSRTGNDMREVANKMKSLLDNTYGRVWQVVLLTGSYWMNFSHEPFLSIQFKYNNYVCLAWRTPSQ
notes: SmTAL1 (Sm22.6), Schistosoma mansoni, GenBank AAA29922.1, Smp_045200.1; also called Sm22.6; source: E. coli, GST-fusion isolated on glutathione-agarose, cleaved with thrombin, free GST removed on Q-Sepharose; not shown: GST, N-terminal, cleaved
B2: SmTAL2 (Schistosoma mansoni tegumental allergen-like protein 2) (natural protein, UniProt P32070 1-184, looked up)
chain: MDSPMEKFIQTYLTLLRDGDETVETSKLSESCRKEKLDMKQVNEWIALFDVDKDQKITFEEFCRGLGLKQNEMRIERNHIKTVQSGREQSLPEGVSIIASTMPKPKQVEVTQLFKDIYNEVKKDPDMNKVVKTFKSELERRYGRVWQVNAVTHSYWASFSHEPFQSIQFQYDNKIILAWRTPSN
notes: SmTAL2 (Sm21.7), Schistosoma mansoni, GenBank AAA74050.1, Smp_086480.1; also called Sm21.7; source: E. coli, GST-fusion isolated on glutathione-agarose, cleaved with thrombin, free GST removed on Q-Sepharose; not shown: GST, N-terminal, cleaved

How the values were obtained:
SmTAL1 (Sm22.6) = molecular target: T1, SmTAL1 (Sm22.6) (Schistosoma mansoni, UniProt P14202); experiment: differential scanning fluorimetry (Sypro Orange); assay type: binding; conditions: 250 µM; 0.25 mM drug, 5 μM protein, 1% DMSO, 0.8 mM CaCl2, 50 mM Hepes pH 7.5, 150 mM NaCl; absolute Tm, not a shift (DMSO control in the 1st table, row 5)
T1 construct: gene A12; recombinant, E. coli, N-terminal GST fusion cleaved with thrombin; EF-hand N-terminal plus DLC-like C-terminal domain; dimer
T1 sequence (P14202 1-190): B1 chain
Source text: differential scanning fluorimetry (Sypro Orange) on SmTAL1 (Sm22.6)

SmTAL2 (Sm21.7) = molecular target: T2, SmTAL2 (Sm21.7) (Schistosoma mansoni, UniProt P32070); experiment: limited proteolysis protection (trypsin, chymotrypsin); assay type: binding; conditions: 250 μM drug, 10 μM protein, 1% DMSO, 0.8 mM CaCl2, 37 °C
T2 construct: recombinant, E. coli, N-terminal GST fusion cleaved with thrombin; EF-hand N-terminal plus DLC-like C-terminal domain; dimer
T2 sequence (P32070 1-184): B2 chain

SmTAL3 (Sm20.8) = molecular target: T3, SmTAL3 (Sm20.8) (Schistosoma mansoni, UniProt P91804); experiment: differential scanning fluorimetry (Sypro Orange); assay type: binding; conditions: 250 µM; 0.25 mM drug, 7 μM protein, 1% DMSO, 0.8 mM CaCl2, 50 mM Hepes pH 7.5, 150 mM NaCl; absolute Tm, not a shift (DMSO control in the 1st table, row 5)
T3 construct: gene Sm 20.8; recombinant, E. coli, N-terminal GST fusion cleaved with thrombin; EF-hand-like N-terminal plus DLC-like C-terminal domain; dimer and higher oligomers
T3 sequence (P91804 1-181): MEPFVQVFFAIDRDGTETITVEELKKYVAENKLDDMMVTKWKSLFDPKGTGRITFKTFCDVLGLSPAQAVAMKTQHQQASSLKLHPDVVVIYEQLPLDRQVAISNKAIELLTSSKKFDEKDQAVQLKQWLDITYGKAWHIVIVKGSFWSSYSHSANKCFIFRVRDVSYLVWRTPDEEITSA
Source text: differential scanning fluorimetry (Sypro Orange) on SmTAL3 (Sm20.8)

[1] = molecular target: SmTAL3 (Schistosoma mansoni tegumental allergen-like protein 3) (Schistosoma mansoni); experiment: cross-linking; BS3 (50, 150, 500 μM) with 10-15 μM protein in buffer R (50 mM Hepes-OH pH 7.5, 150 mM NaCl, 10% v/v glycerol), 37 °C, 35 min; with 0.8 mM EGTA or 0.8 mM EGTA/1.6 mM calcium chloride; analysed by 15% SDS-PAGE
[2] = molecular target: the molecule itself; experiment: as above

Row | Molecule | melting temperature (Tm) (SmTAL1 (Sm22.6)) [°C] | SmTAL3 (SmTAL3 (Sm20.8)) [°C] | also measured
1 | NCCCCCCNS(=O)(=O)c1cccc2c(Cl)cccc12 [W7, N-(6-Aminohexyl)-5-chloro-1-naphthalenesulfonamide hydrochloride] | 61.5 ± 0.3 | 74.3 ± 0.1 | limited proteolysis protection (trypsin, chymotrypsin) (SmTAL2 (Sm21.7)): Of the drugs tested, only W7 protected SmTAL2 from limited proteolysis by trypsin or chymotrypsin
2 | O=C(C1CCCCC1)N1CC(=O)N2CCc3ccccc3C2C1 (centres unmarked) [praziquantel] | 61.7 ± 0.2 | – | –
3 | CN1CCN(CCCN2c3ccccc3Sc3ccc(C(F)(F)F)cc32)CC1 [trifluoperazine] | 62.2 ± 0.8 | 73.9 ± 0.1 | –
4 | SmTAL3 (Schistosoma mansoni tegumental allergen-like protein 3) (natural protein) | – | – | stoichiometry N [1]: 2
5 | CN(C)CCCN1c2ccccc2Sc2ccc(Cl)cc21 [chlorpromazine] | 61.3 ± 0.3 | 74.1 ± 0.1 | –
6 | B1 | – | – | stoichiometry N [2]: 2
7 | B2 | – | – | stoichiometry N [2]: 2
